SMILES | melting point
Cc1cc(C(=O)NNC(=O)Cc2cccc(O)c2)ccc1O [compound 75] | 207 to 208 °C
O=C(Cc1cccc(O)c1)NNC(=O)c1ccc2ccccc2c1 [compound 32] | 201 to 202 °C
O=C(Cc1cccc(O)c1)NNC(=O)c1ccccc1 [compound 51] | 162 to 163 °C
O=C(Cc1cccc(O)c1)NNC(=O)c1c(F)cccc1F [compound 38] | 191 to 192 °C
O=C(Cc1cccc(O)c1)NNC(=O)c1ccccc1F [compound 21] | 154 to 155 °C
O=C(Cc1cccc(O)c1)NNC(=O)c1ccc(O)cc1Cl [compound 8] | 165 to 166 °C
O=C(Cc1cccc(O)c1)NNC(=O)c1ccc(O)cc1 [compound 3] | 207 to 208 °C
COc1cc(O)ccc1C(=O)NNC(=O)Cc1cccc(O)c1 [compound 35] | 208 to 209 °C
O=C(Cc1cccc(O)c1)NNC(=O)c1ccc(F)c(F)c1 [compound 41] | 164 °C
COc1cc(I)c(C(=O)NNC(=O)Cc2cccc(O)c2)cc1OC [compound 10] | 199 to 200 °C
O=C(Cc1cccc(O)c1)NNC(=O)c1ccc(O)cc1C(F)(F)F [compound 71] | 210 to 212 °C
NC(=O)c1cc(C(=O)NNC(=O)Cc2cccc(O)c2)c(O)cc1O [compound 85] | 260 to 261 °C
COc1cc(OCc2ccccc2)ccc1C(=O)NNC(=O)Cc1cccc(O)c1 [compound 14] | 193 to 194 °C
O=C(Cc1cccc(O)c1)NNC(=O)c1ccc(CCl)cc1 [compound 54] | 175 to 176 °C
O=C(Cc1cccc(O)c1)NNC(=O)c1cccc(C(F)(F)F)c1 [compound 53] | 161 to 162 °C
O=C(Cc1cccc(O)c1)NNC(=O)c1ccc(F)cc1 [compound 31] | 182 to 183 °C

The remaining lines, values ahead:

melting point | SMILES
194 to 195 °C | O=C(Cc1cccc(O)c1)NNC(=O)c1c(Br)cc(OCc2ccccc2)cc1OCc1ccccc1 [compound 64]
197 to 198 °C | Cc1ccccc1C(=O)NNC(=O)Cc1cccc(O)c1 [compound 30]
189 to 190 °C | O=C(Cc1cccc(O)c1)NNC(=O)c1ccc(OC(F)(F)F)cc1 [compound 16]
190 to 191 °C | CCc1cc(OCc2ccccc2)ccc1C(=O)NNC(=O)Cc1cccc(O)c1 [compound 59, N′-[2-(3-hydroxyphenyl)acetyl]-4-benzyloxy-2-ethylbenzohydrazide]
176 to 177 °C | O=C(Cc1cccc(O)c1)NNC(=O)c1cccc(F)c1 [compound 37]
171 to 172 °C | COc1ccc(C(=O)NNC(=O)Cc2cccc(O)c2)c(C)c1 [compound 13]
222 to 223 °C | O=C(Cc1cccc(O)c1)NNC(=O)c1ccc([N+](=O)[O-])cc1 [compound 56]
214 to 215 °C | O=C(Cc1cccc(O)c1)NNC(=O)c1ccccc1O [compound 5]
198 to 199 °C | COc1cc(F)c(C(=O)NNC(=O)Cc2cccc(O)c2)c(F)c1 [compound 12]
175 to 176 °C | Cc1ccc(C(=O)NNC(=O)Cc2cccc(O)c2)cc1 [compound 22]
194 to 195 °C | O=C(Cc1cccc(O)c1)NNC(=O)c1cccc(Br)c1 [compound 33]
183 to 184 °C | CC(C)(C)c1ccc(C(=O)NNC(=O)Cc2cccc(O)c2)cc1 [compound 43]
